Measurements taken from ChEMBL document CHEMBL1955803, “Preclinical in vivo evaluation of efficacy, pharmacokinetics, and pharmacodynamics of a novel MEK1/2 kinase inhibitor RO5068760 in multiple tumor models” (Mol Cancer Ther, 2010).
Activity calls are given as the source filed them. The rule behind the calls is not given here.

Columns and labels:
Mus musculus [1] = test: Average drug concentration in human H460 cells expressing K-Ras Q61H mutant xenografted nude mouse plasma at 50 mg/kg, po bid; type: ADME, organism-based; set-up: dose 50 mg/kg, route oral; conditions: in vivo
[2] = Cmax in human MIAPaCa2 cells expressing K-Ras G12C mutant xenografted nude mouse at 200 mg/kg, po qd; type: ADME, organism-based, MIA PaCa-2; set-up: dose 200 mg/kg, route oral; conditions: in vivo
MIA PaCa-2 [3] = test: Growth inhibition of human MIAPaCa2 cells expressing K-Ras […] mutant by MTT assay; type: functional, cell-based
[4] = Antitumor activity against human LOX cells expressing B-Raf V600E mutant xenografted in nude mouse assessed as tumor growth inhibition at 500 mg/kg, po administered weekly once; type: functional; conditions: read-out: GI
Mus musculus [5] = test: Toxicity in human MIAPaCa2 cells expressing K-Ras G12C mutant xenografted nude mouse assessed as gross signs of adverse effect at 25 to 200 mg/kg, po bid for 3 weeks; type: organism-based, MIA PaCa-2; set-up: dose 25-200 mg/kg, route oral; conditions: in vivo, 504 h
[6] = biological target: T1, Dual specificity mitogen-activated protein kinase kinase; MEK1/2 (Homo sapiens) (UniProt P36507+Q02750); conditions: HT-29, 2 to 10 uM
T1 sequence (P36507 whole entry, looked up): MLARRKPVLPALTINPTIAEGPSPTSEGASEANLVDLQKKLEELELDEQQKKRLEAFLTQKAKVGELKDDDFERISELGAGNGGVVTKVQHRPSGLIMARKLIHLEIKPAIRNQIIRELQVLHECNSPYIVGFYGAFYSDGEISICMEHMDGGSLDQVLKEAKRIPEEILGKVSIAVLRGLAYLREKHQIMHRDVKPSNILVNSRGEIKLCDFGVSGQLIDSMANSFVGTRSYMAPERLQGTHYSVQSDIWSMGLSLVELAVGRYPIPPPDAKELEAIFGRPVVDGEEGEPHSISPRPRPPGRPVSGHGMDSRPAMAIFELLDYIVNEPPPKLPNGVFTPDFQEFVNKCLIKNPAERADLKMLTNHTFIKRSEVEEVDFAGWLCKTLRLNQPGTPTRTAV
T1 sequence (Q02750 whole entry, looked up): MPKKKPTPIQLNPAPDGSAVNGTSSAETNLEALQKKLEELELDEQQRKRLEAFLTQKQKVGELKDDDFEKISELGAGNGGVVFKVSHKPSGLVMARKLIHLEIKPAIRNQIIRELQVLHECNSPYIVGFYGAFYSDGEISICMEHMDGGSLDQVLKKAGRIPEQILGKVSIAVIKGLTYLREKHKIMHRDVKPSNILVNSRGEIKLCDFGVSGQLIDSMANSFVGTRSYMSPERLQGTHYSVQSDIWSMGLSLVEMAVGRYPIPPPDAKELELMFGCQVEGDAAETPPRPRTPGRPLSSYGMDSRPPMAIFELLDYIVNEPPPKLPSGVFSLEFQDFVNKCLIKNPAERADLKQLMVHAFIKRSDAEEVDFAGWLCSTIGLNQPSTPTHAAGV
Description: Inhibition of MEK1/2 in human HT-29 cells assessed as inhibition of ERK1/2 phosphorylation at 2 to 10 uM by Western blot analysis

[7] = AUC (0 to 12 hrs) in human HT-29 cells expressing B-Raf V600E mutant xenografted nude mouse at 25 mg/kg, po bid; type: ADME, organism-based; set-up: time < 12 hr, dose 25 mg/kg, route oral; conditions: in vivo
Mus musculus [8] = test: Average drug concentration in human H460 cells expressing K-Ras Q61H mutant xenografted nude mouse plasma at 100 mg/kg, po bid; type: ADME, organism-based; set-up: dose 100 mg/kg, route oral; conditions: in vivo
Mus musculus [9] = test: Toxicity in human LOX cells expressing B-Raf V600E mutant xenografted nude mouse assessed as gross signs of adverse effect at 6.25 to 200 mg/kg, po bid for 3 weeks; type: organism-based; set-up: dose 6.25-200 mg/kg, route oral; conditions: in vivo, 504 h
[10] = Cmax in human LOX cells expressing B-Raf V600E mutant xenografted nude mouse at 6.25 mg/kg, po bid; type: ADME, organism-based; set-up: dose 6.25 mg/kg, route oral; conditions: in vivo
[11] = AUC (0 to 12 hrs) in human H460 cells expressing K-Ras Q61H mutant xenografted nude mouse at 50 mg/kg, po bid; type: ADME, organism-based; set-up: time < 12 hr, dose 50 mg/kg, route oral; conditions: in vivo
[12] = Plasma concentration in human HT-29 cells expressing B-Raf V600E mutant xenografted nude mouse at 100 mg/kg, po after 12 hrs; type: ADME, organism-based; set-up: dose 100 mg/kg, route oral
[13] = Cmax in human MIAPaCa2 cells expressing K-Ras G12C mutant xenografted nude mouse at 50 mg/kg, po bid; type: ADME, organism-based, MIA PaCa-2; set-up: dose 50 mg/kg, route oral; conditions: in vivo
Mus musculus [14] = test: Average drug concentration in human LOX cells expressing B-Raf V600E mutant xenografted nude mouse plasma at 12.5 mg/kg, po bid; type: ADME, organism-based; set-up: dose 12.5 mg/kg, route oral; conditions: in vivo
Mus musculus [15] = test: Inhibition of MEK-mediated ERK phosphorylation in tumor of human HT-29 cells expressing B-Raf V600E mutant xenografted nude mouse at 100 mg/kg, po after 8 hrs by Western blot analysis relative to control; type: functional; conditions: HT-29, 8 h
[16] = Antitumor activity against human LOX cells expressing B-Raf V600E mutant xenografted in nude mouse assessed as tumor growth inhibition at 25 mg/kg, po bid; type: functional; conditions: read-out: GI
[17] = Plasma concentration in human HT-29 cells expressing B-Raf V600E mutant xenografted nude mouse at 50 mg/kg, po after 12 hrs; type: ADME, organism-based; set-up: dose 50 mg/kg, route oral
HT-29 [18] = test: Induction of apoptosis in human HT-29 cells; type: functional, cell-based
Mus musculus [19] = test: Average drug concentration in human HT-29 cells expressing B-Raf V600E mutant xenografted nude mouse plasma at 50 mg/kg, po bid; type: ADME, organism-based; set-up: dose 50 mg/kg, route oral; conditions: in vivo
NCI-H460 = test: Antitumor activity against human H460 cells expressing K-Ras Q61H mutant xenografted in nude mouse assessed as tumor growth inhibition at 500 mg/kg, po administered weekly once; type: functional; conditions: read-out: GI
[20] = Cell cycle arrest in human LOX cells assessed as accumulation at G1 phase; type: functional, cell-based
Mus musculus [21] = test: Inhibition of MEK-mediated ERK phosphorylation in tumor of human HT-29 cells expressing B-Raf V600E mutant xenografted nude mouse at 100 mg/kg, po after 2 hrs by Western blot analysis relative to control; type: functional; conditions: HT-29, 2 h
[22] = Drug level in human HT-29 cells expressing B-Raf V600E mutant xenografted nude mouse tumor at 100 mg/kg, po after 12 hrs; type: ADME, organism-based, Neoplasm; set-up: dose 100 mg/kg, route oral; conditions: read-out: Drug uptake
MIA PaCa-2 [23] = test: Antitumor activity against human MIAPaCa2 cells expressing K-Ras G12C mutant xenografted in nude mouse assessed as tumor growth inhibition at 50 mg/kg, po bid; type: functional; conditions: read-out: GI
Mus musculus [24] = test: Toxicity in human HT-29 cells expressing B-Raf V600E mutant xenografted nude mouse assessed as gross signs of adverse effect at 25 to 100 mg/kg, po bid for 3 weeks; type: organism-based; set-up: dose 25-100 mg/kg, route oral; conditions: in vivo, 504 h
Mus musculus [25] = test: Average drug concentration in human H460 cells expressing K-Ras Q61H mutant xenografted nude mouse plasma at 25 mg/kg, po bid; type: ADME, organism-based; set-up: dose 25 mg/kg, route oral; conditions: in vivo
[26] = Antitumor activity against human LOX cells expressing B-Raf V600E mutant xenografted in nude mouse assessed as tumor growth inhibition at 50 mg/kg, po bid; type: functional; conditions: read-out: GI
[27] = Plasma concentration in human LOX cells expressing B-Raf V600E mutant xenografted nude mouse at 100 mg/kg, po after 1 hr; type: ADME, organism-based; set-up: dose 100 mg/kg, route oral
[28] = AUC (0 to 12 hrs) in human MIAPaCa2 cells expressing K-Ras G12C mutant xenografted nude mouse at 25 mg/kg, po bid; type: ADME, organism-based, MIA PaCa-2; set-up: time < 12 hr, dose 25 mg/kg, route oral; conditions: in vivo
[29] = biological target: T1, Dual specificity mitogen-activated protein kinase kinase; MEK1/2 (Homo sapiens); conditions: LOX, 2 to 10 uM
Description: Inhibition of MEK1/2 phosphorylation in human LOX cells at 2 to 10 uM by Western blot analysis

Mus musculus [30] = test: Inhibition of MEK-mediated ERK phosphorylation in po dosed human LOX cells expressing B-Raf V600E mutant xenografted nude mouse tumor by Western blot analysis; type: functional, organism-based
Mus musculus [31] = test: Average drug concentration in human H460 cells expressing K-Ras Q61H mutant xenografted nude mouse plasma at 200 mg/kg, po qd; type: ADME, organism-based; set-up: dose 200 mg/kg, route oral; conditions: in vivo
HT-29 [32] = test: Reversible growth inhibition of human HT-29 cells expressing B-Raf V600E mutant measured up to 3 days by MTT assay; type: functional, cell-based
[33] = AUC (0 to 12 hrs) in human LOX cells expressing B-Raf V600E mutant xenografted nude mouse at 25 mg/kg, po bid; type: ADME, organism-based; set-up: time < 12 hr, dose 25 mg/kg, route oral; conditions: in vivo
MIA PaCa-2 [34] = test: Antitumor activity against human MIAPaCa2 cells expressing K-Ras G12C mutant xenografted in nude mouse assessed as tumor growth inhibition at 500 mg/kg, po administered weekly once; type: functional; conditions: read-out: GI
Mus musculus [35] = test: Toxicity in human HT-29 cells expressing B-Raf V600E mutant xenografted nude mouse assessed as gross signs of adverse effect at 500 mg/kg, po administered weekly once for 3 weeks; type: organism-based; set-up: dose 500 mg/kg, route oral; conditions: in vivo, 504 h
Mus musculus [36] = test: Average drug concentration in human HT-29 cells expressing B-Raf V600E mutant xenografted nude mouse plasma at 25 mg/kg, po bid; type: ADME, organism-based; set-up: dose 25 mg/kg, route oral; conditions: in vivo
[37] = AUC (0 to 12 hrs) in human HT-29 cells expressing B-Raf V600E mutant xenografted nude mouse at 50 mg/kg, po bid; type: ADME, organism-based; set-up: time < 12 hr, dose 50 mg/kg, route oral; conditions: in vivo
Mus musculus [38] = test: Inhibition of MEK-mediated ERK phosphorylation in tumor of human HT-29 cells expressing B-Raf V600E mutant xenografted nude mouse at 100 mg/kg, po after 4 hrs by Western blot analysis relative to control; type: functional; conditions: HT-29, 4 h

C[C@@H](c1ccccc1)[C@@H](C(=O)Nc1ccc(I)cc1F)N1C(=O)N[C@H](c2ccc(OC[C@H](O)CO)cc2)C1=O
Cave (Mus musculus [1]): 1942 ng/mL | Cmax [2]: 15500 ng/mL | IC50 (MIA PaCa-2 [3]): 1.25 µM | IC90 (MIA PaCa-2 [3]): 5.11 µM | inhibition in vivo at 500 mg/kg [4]: > 100% | Activity (Mus musculus [5]): Non-toxic | inhibition [6]: Active | AUC at 12 h [7]: 3780 ng·h/mL | Cave (Mus musculus [8]): 5242 ng/mL | Activity (Mus musculus [9]): Non-toxic | Cmax [10]: 750 ng/mL | AUC at 12 h [11]: 23300 ng·h/mL | concentration at 12 h [12]: 195 ng/mL | Cmax [13]: 5240 ng/mL | Cave (Mus musculus [14]): 388 ng/mL | inhibition in vivo at 100 mg/kg (Mus musculus [15]): 0% | inhibition in vivo at 25 mg/kg [16]: > 100% | concentration at 12 h [17]: 61 ng/mL | Activity (HT-29 [18]): Active | Cave (Mus musculus [19]): 609 ng/mL | inhibition in vivo at 500 mg/kg (NCI-H460): 48% | Activity [20]: Active | inhibition in vivo at 100 mg/kg (Mus musculus [21]): 76% | concentration at 12 h [22]: 321 ng/g | inhibition in vivo at 50 mg/kg (MIA PaCa-2 [23]): 84% | Activity (Mus musculus [24]): Non-toxic | Cave (Mus musculus [25]): 733 ng/mL | inhibition in vivo at 50 mg/kg [26]: > 100% | concentration at 1 h [27]: 4840 ng/mL | AUC at 12 h [28]: 12700 ng·h/mL | inhibition [29]: Active | EC50 (Mus musculus [30]): 928 ng/g | Cave (Mus musculus [31]): 5083 ng/mL | Activity (HT-29 [32]): Active | AUC at 12 h [33]: 10000 ng·h/mL | inhibition in vivo at 500 mg/kg (MIA PaCa-2 [34]): 42% | Activity (Mus musculus [35]): Non-toxic | Cave (Mus musculus [36]): 315 ng/mL | AUC at 12 h [37]: 7310 ng·h/mL | inhibition in vivo at 100 mg/kg (Mus musculus [38]): 79%
